# From ChEMBL document CHEMBL6078680, “Improving the Stability and Anti-Infective Activity of Sea Turtle AMPs Using Multiple Structural Modification Strategies” (J Med Chem, 2024)
# Calls of active or inactive are those of the source. No cut-off for these calls is given here. Non-standard residues stand in square brackets, D forms with d. Residues, ends and D or L forms follow the SMILES beside them. Orn = NCCC[C@H](N)C(=O)O
# How the values were obtained:
# [1] = Hemolytic activity at human Erythrocyte assessed as hemolysis at 100 microg/ml; format: toxicity, cell-based; details: erythrocytes, at 100 µg/mL, read-out: Activity
# [2] = test system: Staphylococcus aureus; assay: Antimicrobial activity against Staphylococcus aureus CMCC 26003 assessed as reduction in microbial growth incubated for 18 hrs by broth microdilution method; format: functional
# [3] = test system: Escherichia coli; assay: Antibacterial activity against Escherichia coli ATCC 25922 assessed as increase in intracellular ROS production at 2 to 5 times MIC by DCFH-DA staining based assay; format: functional, organism-based
# [4] = test system: Acinetobacter baumannii; assay: In vivo antibacterial activity against Acinetobacter baumannii ATCC19606 infected in BALB/c mouse assessed as reduction in bacterial load in lung at 15 mg/kg, ip measured after 3 hrs; format: functional, organism-based
# [5] = test system: Acinetobacter baumannii; assay: In vivo antibacterial activity against Acinetobacter baumannii ATCC19606 infected in BALB/c mouse assessed as reduction in bacterial load in kidney at 15 mg/kg, ip measured after 12 hrs; format: functional, organism-based
# [6] = test system: Cell membrane; assay: Disruption of cell membrane integrity in Escherichia coli ATCC 25922 assessed as cell membrane damage at 5 times MIC measured after 30 mins by scanning electron microscopic analysis; format: subcellular
# [7] = test system: Staphylococcus aureus; assay: Antimicrobial activity against Staphylococcus aureus CMCC 26003 at 5 times MIC measured at 180 mins; format: functional, organism-based
# [8] = test system: Cell membrane; assay: Disruption of cell membrane integrity in Staphylococcus aureus CMCC 26003 assessed as cell membrane damage at 5 times MIC measured after 30 mins by scanning electron microscopic analysis; format: subcellular
# [9] = test system: Staphylococcus epidermidis; assay: Antimicrobial activity against Staphylococcus epidermidis assessed as reduction in microbial growth incubated for 18 hrs by broth microdilution method; format: functional
# [10] = test system: Peritoneal macrophage; assay: Antiinflammatory activity in mouse Peritoneal macrophage cells assessed as inhibition of LPS-induced IL-6 production at 20 microg/ml incubated for 6 hrs by ELISA analysis; format: functional, cell-based; details: dose 20.0 µg/ml
# [11] = test system: Pseudomonas aeruginosa; assay: Antimicrobial activity against Pseudomonas aeruginosa CMCC10104 assessed as reduction in microbial growth incubated for 18 hrs by broth microdilution method; format: functional
# [12] = test system: Acinetobacter baumannii; assay: Antibiofilm activity against Acinetobacter baumannii ATCC 19606 assessed as biofilm eradication incubated for 24 hrs by crystal violet staining based analysis; format: functional, organism-based
# [13] = test system: Enterococcus faecium; assay: Antimicrobial activity against Enterococcus faecium 34 assessed as reduction in microbial growth incubated for 18 hrs by broth microdilution method; format: functional
# [14] = test system: Acinetobacter baumannii; assay: Antimicrobial activity against Acinetobacter baumannii ATCC19606 assessed as reduction in microbial growth incubated for 18 hrs by broth microdilution method; format: functional
# [15] = test system: Escherichia coli; assay: Drug resistance, ratio of MIC for Escherichia coli ATCC 25922 after 40 passages to MIC for Escherichia coli ATCC 25922 during first exposure; format: functional
# [16] = test system: Staphylococcus aureus; assay: Antibiofilm activity against Staphylococcus aureus CMCC 26003 assessed as biofilm eradication at 8 times MIC incubated for 24 hrs by crystal violet staining based analysis; format: functional
# [17] = test system: Acinetobacter baumannii; assay: In vivo antibacterial activity against Acinetobacter baumannii ATCC19606 infected in BALB/c mouse assessed as reduction in bacterial load in lung at 15 mg/kg, ip measured after 12 hrs; format: functional, organism-based
# [18] = test system: Clostridium perfringens; assay: Antimicrobial activity against Clostridium perfringens ATCC 13124 assessed as reduction in microbial growth incubated for 18 hrs by broth microdilution method; format: functional
# [19] = test system: Acinetobacter baumannii; assay: In vivo antibacterial activity against Acinetobacter baumannii ATCC19606 infected in BALB/c mouse assessed as reduction in bacterial load in kidney at 15 mg/kg, ip measured after 3 hrs; format: functional, organism-based
# [20] = test system: Staphylococcus aureus; assay: Antimicrobial activity against Staphylococcus aureus ATCC 43300 assessed as reduction in microbial growth incubated for 18 hrs by broth microdilution method; format: functional
# [21] = test system: Acinetobacter baumannii; assay: Antipersister-activity against Acinetobacter baumannii ATCC 19606 assessed as elimination of persister cells at 50 times MIC preincubated adherent persistent cells with colistin incubation for 24 hrs; format: functional
# [22] = test system: Staphylococcus aureus; assay: Bactericidal activity against Staphylococcus aureus CMCC 26003 assessed as bacterial eradication incubated at 0.5 hrs in presence of thiourea; format: functional, organism-based
# [23] = test system: Escherichia coli; assay: Antibacterial activity against Escherichia coli ATCC 25922 at 1 times MIC in presence of exogenous DNA; format: functional, organism-based
# [24] = Acute toxicity in BALB/c mouse assessed as mortality at 20 mg/kg, iv measured for 24 hrs; format: organism-based; details: in vivo, read-out: Activity
# [25] = test system: Acinetobacter baumannii; assay: In vivo antibacterial activity against Acinetobacter baumannii ATCC19606 infected in BALB/c mouse assessed as reduction in bacterial load in liver at 15 mg/kg, ip measured after 3 hrs; format: functional, organism-based
# [26] = test system: Escherichia coli; assay: Antibacterial activity against Escherichia coli ATCC 25922 assessed as increase in intracellular ROS production at 1 times MIC by DCFH-DA staining based assay; format: functional, organism-based
# [27] = test system: Enterococcus faecalis; assay: Antimicrobial activity against Enterococcus faecalis ATCC 29217 assessed as reduction in microbial growth incubated for 18 hrs by broth microdilution method; format: functional
# [28] = test system: Escherichia coli; assay: Antimicrobial activity against Escherichia coli ATCC 25922 assessed as reduction in microbial growth incubated for 18 hrs by broth microdilution method; format: functional
# [29] = test system: Staphylococcus aureus; assay: Antibiofilm activity against Staphylococcus aureus CMCC 26003 assessed as reduction in biofilm formation at 0.5 times MIC incubated for 24 hrs by crystal violet staining based analysis; format: functional; design: scale not given: the % may be the effect or the level left
# [30] = Acute toxicity in BALB/c mouse assessed as mortality at 50 mg/kg, iv measured for 24 hrs; format: organism-based; details: in vivo, read-out: Activity
# [31] = test system: Staphylococcus aureus; assay: Antibacterial activity against Staphylococcus aureus CMCC 26003 assessed as increase in intracellular ROS production incubated for 1 hr by DCFH-DA staining based assay; format: functional, organism-based
# [32] = test system: Staphylococcus aureus; assay: Antibiofilm activity against Staphylococcus aureus CMCC 26003 assessed as biofilm eradication incubated for 24 hrs by crystal violet staining based analysis; format: functional, organism-based
# [33] = test system: Escherichia coli; assay: Antimicrobial activity against Escherichia coli CMCC44102 assessed as reduction in microbial growth incubated for 18 hrs by broth microdilution method; format: functional
# [34] = Acute toxicity in BALB/c mouse assessed as effect on ALT level at 10 mg/kg, iv measured for 24 hrs; format: organism-based; details: in vivo
# [35] = test system: Acinetobacter baumannii; assay: Drug resistance, ratio of MIC for Acinetobacter baumannii ATCC1960 after 40 passages to MIC for Acinetobacter baumannii ATCC1960 during first exposure; format: functional
# [36] = test system: Staphylococcus aureus; assay: Antimicrobial activity against Staphylococcus aureus CMCC 26003 assessed as fold increase in MIC incubated for 18 hrs in presence of CCCP; format: functional
# [37] = test system: Salmonella enteritidis; assay: Antimicrobial activity against Salmonella enterica subsp. enterica serovar Enteritidis ATCC 14028 assessed as reduction in microbial growth incubated for 18 hrs by broth microdilution method; format: functional
# [38] = test system: Staphylococcus aureus; assay: Antimicrobial activity against Staphylococcus aureus 08032706 assessed as reduction in microbial growth incubated for 18 hrs by broth microdilution method; format: functional
# [39] = test system: Acinetobacter baumannii; assay: In vivo antibacterial activity against Acinetobacter baumannii ATCC19606 infected in BALB/c mouse assessed as survival at 15 mg/kg, ip administered for 12 hrs and measured on day 7; format: functional; details: ATCC19606, 168 h, time 7 day
# [40] = Acute toxicity in BALB/c mouse assessed as mortality at 10 mg/kg, iv measured for 24 hrs; format: organism-based; details: in vivo, read-out: Activity
smiles,measurement,setting,value
CC[C@H](C)[C@H](NC(=O)[C@H](CCCN)NC(=O)[C@H](CO)NC(=O)[C@H](Cc1c[nH]cn1)NC(=O)[C@H](CCCN)NC(=O)[C@H](CC(C)C)NC(=O)[C@@H](NC(=O)[C@H](CCCN)NC(=O)CNC(=O)[C@H](CC(C)C)NC(=O)[C@H](CCC(N)=O)NC(=O)[C@H](CCCN)NC(=O)[C@H](CCCN)NC(=O)[C@@H](NC(=O)[C@H](CCCN)NC(=O)[C@H](CCCN)NC(=O)[C@@H](N)Cc1ccccc1)C(C)C)C(C)C)C(=O)N[C@H](C(=O)N[C@H](C(=O)NCC(=O)NCC(=O)N[C@@H](CCCN)C(=O)N[C@@H](CCSC)C(=O)N[C@@H](CCCN)C(=O)N[C@@H](Cc1ccccc1)C(=O)O)C(C)C)[C@@H](C)O (H-F[Orn][Orn]V[Orn][Orn]QLG[Orn]VL[Orn]HS[Orn]ITVGG[Orn]M[Orn]F-OH),hemolysis at 100 microg/ml,[1],< 5%
same,MIC,[2],75 µg/mL
same,Activity,[3],Active
same,Activity,[4],Active
same,Activity,[5],Active
same,Activity,[6],Active
same,Activity,[7],inactive
same,Activity,[8],Active
same,MIC,[9],18.8 µg/mL
same,Activity,[10],Active
same,MIC,[11],75 µg/mL
same,Activity,[12],Active
same,MIC,[13],9.38 µg/mL
same,MIC,[14],9.38 µg/mL
same,Ratio,[15],1
same,Activity,[16],50%
same,Activity,[17],Active
same,MIC,[18],18.8 µg/mL
same,Activity,[19],Active
same,MIC,[20],> 100 µg/mL
same,Activity,[21],60%
same,Activity,[22],Active
same,Activity,[23],Active
same,mortality at 24 h,[24],0%
same,Activity,[25],Active
same,Activity,[26],Active
same,MIC,[27],18.8 µg/mL
same,MIC,[28],9.38 µg/mL
same,Activity,[29],20%
same,mortality at 24 h,[30],0%
same,Activity,[31],Dose-dependent-effect
same,Activity,[32],Active
same,MIC,[33],18.8 µg/mL
same,Activity,[34],Non-toxic
same,Ratio,[35],1
same,fold change (FC),[36],32
same,MIC,[37],37.5 µg/mL
same,MIC,[38],37.5 µg/mL
same,survival at 15 mg/kg,[39],40%
same,mortality at 24 h,[40],0%
